In experiment [1] the target is Adenosine receptor A2a (Homo sapiens) (UniProt P29274). Nature of the experiment: Positive allosteric modulation of A2A adenosine receptor (unknown origin).
For experiment [2] the target is unchanged. Kind of experiment: Antagonist activity at A2A adenosine receptor (unknown origin).
For experiment [3] the target is unchanged. Kind of experiment: Binding affinity to A2A adenosine receptor (unknown origin).
For experiment [4] the target is unchanged. Nature of the experiment: Negative allosteric modulation of A2A adenosine receptor (unknown origin).

Adenosine receptor A2a (Homo sapiens), sequence (P29274 whole entry): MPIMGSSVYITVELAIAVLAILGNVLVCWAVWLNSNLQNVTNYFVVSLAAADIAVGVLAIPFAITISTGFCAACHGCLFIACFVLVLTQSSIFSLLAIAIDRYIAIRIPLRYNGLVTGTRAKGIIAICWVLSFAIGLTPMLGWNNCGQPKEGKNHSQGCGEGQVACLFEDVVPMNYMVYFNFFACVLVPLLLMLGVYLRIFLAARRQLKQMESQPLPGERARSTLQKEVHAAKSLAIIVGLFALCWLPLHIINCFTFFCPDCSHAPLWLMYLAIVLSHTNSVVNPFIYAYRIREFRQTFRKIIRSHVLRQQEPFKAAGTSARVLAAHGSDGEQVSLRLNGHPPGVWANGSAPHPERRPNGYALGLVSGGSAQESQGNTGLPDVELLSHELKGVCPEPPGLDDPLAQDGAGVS

With `O=C(O)CCN1CCCc2ccccc21`, the Activity in experiment [1] was found to be 2 mM. For `Cc1cc(C)nc(NC(=N)NCCc2c[nH]c3ccc(F)cc23)n1`, in experiment [2], the Activity was determined as 200 nM. The molecule `Nc1nc(-c2ccc(F)cc2)ns1` yielded an Activity in experiment [3] of 70 nM. Regarding `Nc1nnc(-c2cc(C(F)(F)F)nc(C(F)(F)F)c2)c(-c2ccccc2)n1`, the Activity in experiment [2] turned out to be 30 nM.

Consider `Oc1cccc(Nc2ccccc2)c1`, for which the Activity in experiment [4] came out at 2 mM.

The values above are taken from ChEMBL document CHEMBL2346579, “Structure-based approaches to ligands for G-protein-coupled adenosine and P2Y receptors, from small molecules to nanoconjugates” (J Med Chem, 2013).
